Test results from US10317393B2, “Alkynyl sugar analogs for labeling and visualization of glycoconjugates in cells” (Academia Sinica, priority 2007, dated 2019).

Tested on: Hep3B cells
Assay: Pulse-chase time-lapse microscopy of fucosylated glycans
Format: cell-based, human
Details: 30 minute pulse, biotin/streptavidin-FITC
Description: Additional cellular structures are visualized using alternative labeling systems (e.g., WGA lectin used to visualize Golgi apparatus, and Hoechst used to visualize nucleus).
Pulse-chased MOE experiments entail growing cells of interest to log-phase levels and then exposing them to the sugar analogs in the growth medium, as prescribed by standard MOE, but only for a 30 minute pulse, before replenishing with fresh medium devoid of sugars. Post sugar-pulse, the cells are grown for various lengths of time before analysis.
Cells of interest may be grown to log phase and then presented with various derivatized sugars for a limited period of time; for example, 30 minutes. After the limited period of time, the cells are no longer presented with the various sugars. The cells with glycoconjugates incorporating various tagged sugars may then be visualized over time through secondary detection and/or microscopy in relation to various intracellular and intercellular structures, in order to collect data on the trafficking and relative location of tagged and labeled glycoconjugates.

Substance: 1,2,3,4-tetraacetyl alkynyl fucose [alkynyl Fuc 1]
- signal for fucosylated glycans co-localized with Golgi marker after pulse: co-localized yellow signal as early as 2 h
